Measurements from patent US20090176888A1, “COMPOSITION COMPRISING PHYTOSPHINGOSINE OR DERIVATIVE THEREOF” (KOREA INSTITUTE OF RADIOLOGICAL & MEDICAL SCIENCES, priority 2003, published 2009).

What was measured:
[1] = test system: human breast cancer cells (MDA-MB-231); assay: Apoptosis test (Sub G1, propidium iodide, flow cytometry); type: cell-based
Description: (§1) Cancer cells as used in the experiment were human lung cancer cells (NCI-H460, Korean Cell Line Bank), human breast cancer cells (MDA-MB-231, American Type Culture Collection (ATCC)), human uterine cervical cancer cells (HeLa, Korean Cell Line Bank), and blood cancer cells (Jurkat, ATCC). These cancer cells were cultured in RPMI 1640 media containing 10% FBS, penicillin, and streptomycin (GIBCO BRL). The apoptosis tests were carried out at human lung cancer cells, breast cancer cells, uterine cervical cancer cells, and blood cancer cells as follows: Phytosphingosine or a derivative thereof was dissolved in DMSO. Samples of the resultant solution of different concentration levels (1, 2, 5, 10, 15, 20 μg/ml) were prepared. According to the following treatment schedule, phytosphingosine treated cancer cells were cultured, washed with PBS (phosphate buffered saline), and fixed with 70% ethanol. The fixed cells were again washed with PBS, suspended in PBS, and 1 mg/ml of RNase was added thereto. Then, DNA was stained with 50 μg/ml of propidium iodide fluorescent dye and the change in the Sub G1 was analyzed by flow cytometry (Becton DICKINSON). The Sub G1, a marker of apoptotic cell death, means DNA distribution lower than that in the G1 phase of cell cycle. (1-1) In order to determine an anticancer effect of phytosphingosine, 5 ml of 10 μg/ml of phytosphingosine was added to respective dishes containing lung cancer cells, breast cancer cells, uterine cervical cancer cells, and blood cancer cells. (1-2) In order to examine a correlation of an anticancer effect with the phytosphingosine concentration and post-treatment culture time, each 5 ml of 2, 5, 10, and 15 μg/ml of phytosphingosine was added to respective human uterine cervical cancer cell-containing dishes and human breast cancer cell-containing dishes. In addition, each 5 ml of 5, 10, 15, and 20 μg/ml of phytosphingosine was added to respective human lung cancer cell-containing dishes, and each 5 ml of 1, 5, 10, and 20 μg/ml of phytosphingosine was added to respective human blood cancer cell-containing dishes.

[2] = test system: human uterine cervical cancer cells (HeLa); assay: as above; type: cell-based
Description: as §1

[3] = test system: human uterine cervical cancer cells (NCI-H460 cells); assay: In vivo animal test, tumor volume in transplanted nude mice (phytosphingosine alone); details: FIG. 11
Description: Nude mice (body weight: about 20 g) were randomized into 2 groups: a first group is for a control group and a second group is for treatment with phytosphingosine. The femoral region of the nude mice was transplanted with human uterine cervical cancer cells ([…]). Then, tumor volume was allowed to reach a level of […]. A 50 mg/kg solution of phytosphingosine in an olive oil was orally administered to the second group for one week on a daily basis.

human lung cancer cells [4] = assay: Analysis of mitochondrial membrane potential (DioC6(3), flow cytometry) and cytochrome c release; type: cell-based; details: 10 μg/ml phytosphingosine
Description: (§2) Human lung cancer cells and blood cancer cells were cultured under the same condition as in the apoptosis test and were treated with 10 ml of phytosphingosine (10 μg/ml of phytosphingosine for lung cancer cells, and 5 μg/ml and 10 μg/ml of phytosphingosine for blood cancer cells). Then, the analysis of mitochondrial membrane potential and western blotting was carried out. Mitochondria were stained with 30 nM of a specific DioC6(3) dye (Calbiochem) for 30 minutes and culture media were removed. Then, lung cancer cells were twice washed with PBS and the membrane potential was analyzed by flow cytometry.

Acute oral toxicity test = details: rat, in vivo, rats
Description: Royal Gist-Brocades N.V. (Netherlands) was asked to perform tests for acute oral toxicity and dermal irritation, and Ames tests of phytosphingosine and derivatives thereof.
In the acute oral toxicity test, the LD50 (the […]) value amounted to 2,000 mg/kg or more in rats.

[5] = test system: human uterine cervical cancer cells; assay: Apoptosis test with or without radiation; type: cell-based; details: 5 μg/ml in combination with radiation, FIG. 17
Description: (§3) (1) Each 5 ml of 20 μg/ml of phytosphingosine and derivatives thereof were added to human lung cancer cell-containing dishes. Some cells were cultured without radiation and others were cultured with radiation with dose of 4 Gy. This apoptosis test was carried out in the same manner in the Experiment 1. Specimens used in this apoptosis test are as follows:
(§4) Control (Cont), IR, PS, PS+IR, C4PS, C4PS+IR, C6PS, C6PS+IR, C8PS, C8PS+IR, C12PS, C12PS+IR.
(§5) (2) Apoptosis tests for human blood cancer cells, uterine cervical cancer cells, and breast cancer cells were carried out in the same manner as in the above (1) except using 5 μg/ml of phytosphingosine and derivatives thereof.

[6] = test system: human breast cancer cells; assay: Apoptosis test with or without radiation; type: cell-based; details: 5 μg/ml in combination with radiation, FIG. 17
Description: as §3, §4, §5

human blood cancer cells [7] = assay: Apoptosis test with or without radiation; type: cell-based; details: 5 μg/ml in combination with radiation
Description: as §3, §4, §5

human blood cancer cells [8] = assay: Analysis of mitochondrial membrane potential and cytochrome c release; type: cell-based; details: 5 and 10 μg/ml phytosphingosine
Description: as §2

human lung cancer cells [9] = assay: Colony formation test in combination with radiation; type: cell-based; details: FIG. 12
Description: Colony formation tests were carried out in human lung cancer cells, breast cancer cells, and uterine cervical cancer cells as follows:
Respective sphingosine, phytosphingosine, C6PS, and C8PS were dissolved ethanol to produce specimens. About 600 cells (for each cancer) were plated in a dish with a diameter of 60 mm and incubated in a CO2 incubator at 37° C. for a day. Then, the cancer cells were treated with the specimens in combination with radiation and were continuously cultured. When suitable colonies were formed, the cancer cells were fixed with a fixing solution (methanol/acetic acid=3:1) and stained with trypan blue. Then, the number of the colonies was counted and the results were evaluated in a comparative manner.

[10] = 10 μg/ml phytosphingosine, test (1-1), FIG. 1

## CCCCCCCCCCCCCC[C@@H](O)[C@@H](O)[C@@H](N)CO [phytosphingosine]
[1]; 10 μg/ml or more, culture of 12 hours or more, FIG. 4
  apoptosis: ≥ 50%
[1]; [10]
  anticancer effect compared to untreated cancer cells: excellent anticancer effects
[1]; 10 μg/ml, at 12 hours after treatment
  apoptosis: 50%
[2]; [10]
  anticancer effect compared to untreated cancer cells: excellent anticancer effects
[2]; 15 μg/ml or more, culture of 12 hours or more, FIG. 3
  apoptosis: ≥ 50%
[2]; 15 μg/ml, at 12-18 hours after treatment
  apoptosis: 50%
[3]; 50 mg/kg/day oral for one week, at the 40th day
  inhibitory effect on tumor growth compared to control group: potent inhibitory effect on tumor growth
[3]; 50 mg/kg/day oral in olive oil for one week, versus control group
  tumor size change: did not show changes for 20 days
Human lung cancer cells [4]; FIGS. 7, 9
  release of cytochrome c from mitochondria: increased
Human lung cancer cells [4]; FIGS. 7-8
  mitochondrial membrane potential: decreased
Acute oral toxicity test
  LD50: ≥ 2000 mg/kg
[5]
  enhancement of radiosensitizing effect: excellent
[6]
  enhancement of radiosensitizing effect: excellent
Human blood cancer cells [7]; FIG. 15
  increase of apoptotic rate, concurrent treatment vs PS or radiation alone: ≥ 20%
Human blood cancer cells [7]; after 18 hours, FIG. 16
  increase of apoptotic rate, concurrent treatment vs PS or radiation alone: ≥ 15%
Human blood cancer cells [8]
  mitochondrial membrane potential: decreased
  release of cytochrome c from mitochondria: increased
Human lung cancer cells [9]; PS in combination with radiation
  reduction of tumor growth, concurrent treatment vs radiation, sphingosine or PS alone: ≥ 30%
Human lung cancer cells [9]; in combination with radiation
  sensitizer enhancement ratio (SER): 1.21
